Measurements from the CheMixHub viscosity set.
Values joined by “and” are separate entries in the source; they are usually repeats but may differ in a detail not shown here. Identical values can stand only once.

Assay: xn = mol fraction of the nth substance listed

C1CN2CN3CCN(CN1C3)C2 + O
viscosity [mPa·s], 101 kPa
Settings	x1 = 0.003598	x1 = 0.007216	x1 = 0.01073	x1 = 0.01425	x1 = 0.0183
293.15 K	1.032	1.083	1.146	1.232	1.347
298.15 K	0.928	0.985	1.047	1.129	1.24
300.15 K	0.843	0.899	0.961	1.04	1.136
305.15 K	0.764	0.822	0.88	0.96	1.054

CC(C)C1CCCCC1 + C1C[C@@H]2[C@H]3CC[C@H](C3)[C@@H]2C1
viscosity [mPa·s], 100 kPa
Settings	x2 = 0.1002	x2 = 0.1999	x2 = 0.3001	x2 = 0.4	x2 = 0.5	x2 = 0.5999	x2 = 0.7001	x2 = 0.8003	x2 = 0.8999
293.15 K	1.194	1.305	1.431	1.578	1.741	1.938	2.165	2.421	2.706
298.15 K	1.106	1.206	1.32	1.451	1.597	1.775	1.976	2.205	2.456
303.15 K	1.029	1.119	1.222	1.34	1.471	1.631	1.812	2.016	2.241
308.15 K	0.96	1.042	1.135	1.242	1.361	1.506	1.67	1.853	2.055
313.15 K	0.898	0.973	1.058	1.156	1.265	1.397	1.543	1.709	1.891
318.15 K	0.842	0.911	0.989	1.078	1.178	1.298	1.431	1.581	1.746
323.15 K	0.793	0.855	0.927	1.009	1.1	1.21	1.331	1.467	1.616

CCCCCCCCCCCCCCCC[N+](C)(C)CCOCCO.Cc1cc(Cl)ccc1OCC(=O)[O-] + CCCCCCCCCCCCCCCC[N+](C)(C)CCOCCO.Cc1cc(Cl)ccc1O[C@H](C)C(=O)[O-]
100 kPa, x1 = 0.58
Settings	viscosity
293.15 K	4543 mPa·s and 4543 mPa·s
303.15 K	1909 mPa·s
313.15 K	928.5 mPa·s
323.15 K	493.4 mPa·s

CCCCCBr + ClC(Cl)(Cl)Cl
viscosity [mPa·s], 101 kPa
Settings	293.15 K	303.15 K	313.15 K	323.15 K
x1 = 0.13	0.925	0.81	0.712	0.633
x1 = 0.273	0.887	0.78	0.692	0.62
x1 = 0.429	0.863	0.76	0.675	0.602
x1 = 0.601	0.841	0.742	0.66	0.592

CCCC[N+](CCCC)(CCCC)CCCC.[OH-] + CC(=O)N(C)C
viscosity [mPa·s], 101 kPa
Settings	298.15 K	303.15 K	308.15 K	313.15 K
x1 = 0.0124	1.15	1.05	0.97	0.9
x1 = 0.0388	1.63	1.47	1.38	1.23
x1 = 0.0678	2.15	1.97	1.81	1.64
x1 = 0.0996	2.67	2.47	2.25	2.06
x1 = 0.1348	3.16	2.96	2.7	2.49
x1 = 0.1538	3.44	3.22	2.96	2.71
x1 = 0.1951	3.94	3.74	3.48	3.21
x1 = 0.2666	4.74	4.48	4.21	3.94
x1 = 0.3529	5.43	5.15	4.9	4.62
x1 = 0.4589	6.02	5.73	5.48	5.21
x1 = 0.5925	6.45	6.2	5.97	5.73
x1 = 0.7026	6.63	6.37	6.14	5.93
x1 = 0.8358	6.66	6.42	6.19	5.99

CC(Cl)(Cl)Cl + C1COCCO1
101.33 kPa
Settings	viscosity
298.15 K, x1 = 0.102	1.141 mPa·s
298.15 K, x1 = 0.201	1.097 mPa·s
298.15 K, x1 = 0.3	1.057 mPa·s
298.15 K, x1 = 0.4	1.016 mPa·s
298.15 K, x1 = 0.5	0.9762 mPa·s and 0.9767 mPa·s
298.15 K, x1 = 0.599	0.938 mPa·s
298.15 K, x1 = 0.7	0.9003 mPa·s
298.15 K, x1 = 0.8	0.8635 mPa·s
298.15 K, x1 = 0.862	0.8404 mPa·s
303.15 K, x2 = 0.0725	0.7541 mPa·s
303.15 K, x2 = 0.1135	0.771 mPa·s
303.15 K, x2 = 0.2041	0.8089 mPa·s
303.15 K, x2 = 0.336	0.8625 mPa·s
303.15 K, x2 = 0.4193	0.8943 mPa·s
303.15 K, x2 = 0.5168	0.9291 mPa·s
303.15 K, x2 = 0.6428	0.97 mPa·s
303.15 K, x2 = 0.7459	1.002 mPa·s
303.15 K, x2 = 0.8153	1.023 mPa·s
303.15 K, x2 = 0.9277	1.059 mPa·s

CC(Cl)(Cl)Cl + CC#N
303.15 K, 101.32 kPa
Settings	viscosity [mPa·s]
x2 = 0.1263	0.6581
x2 = 0.2051	0.6229
x2 = 0.2652	0.5971
x2 = 0.3855	0.5476
x2 = 0.478	0.5114
x2 = 0.6358	0.4505
x2 = 0.6802	0.4339
x2 = 0.7999	0.3906
x2 = 0.8673	0.3675
x2 = 0.9074	0.3539

O=S(=O)([O-])NC1CCCCC1.[Cs+] + O
viscosity [mPa·s], 101 kPa
Settings	x1 = 0.0009023	x1 = 0.001363	x1 = 0.001814	x1 = 0.002253	x1 = 0.002731	x1 = 0.00317	x1 = 0.003611	x1 = 0.004062
293.15 K	1.024	1.036	1.047	1.058	1.071	1.082	1.093	1.105
298.15 K	0.91	0.9199	0.9302	0.9399	0.951	0.9605	0.9704	0.9807
303.15 K	0.8151	0.8242	0.8329	0.8415	0.8512	0.8595	0.8685	0.8771
313.15 K	0.6672	0.6742	0.6815	0.6879	0.6959	0.7025	0.7097	0.7163
323.15 K	0.5584	0.5642	0.5696	0.5753	0.5813	0.5866	0.5921	0.5977

CCCCCBr + Cc1cc(C)cc(C)c1
308.15 K, 101 kPa
Settings	viscosity [mPa·s]
x2 = 0.1098	0.6376
x2 = 0.2005	0.6292
x2 = 0.2983	0.6179
x2 = 0.4035	0.6093
x2 = 0.4979	0.6042
x2 = 0.6027	0.5945
x2 = 0.802	0.5739
x2 = 0.8481	0.5719
x2 = 0.9023	0.5699

O=CO + C1CCOC1
298.15 K, 101 kPa
Settings	viscosity [mPa·s]
x2 = 0.0662	1.443
x2 = 0.1376	1.396
x2 = 0.2148	1.328
x2 = 0.2985	1.233
x2 = 0.3896	1.114
x2 = 0.4891	0.9824
x2 = 0.5983	0.8395
x2 = 0.7186	0.6886
x2 = 0.8517	0.5576

CC(Cl)(Cl)Cl + CCCCCCCO
303.15 K, 101 kPa
Settings	viscosity [mPa·s]
x2 = 0.1177	0.974
x2 = 0.2075	1.143
x2 = 0.4385	1.666
x2 = 0.5262	1.941
x2 = 0.5911	2.186
x2 = 0.6407	2.407
x2 = 0.7497	2.99
x2 = 0.8365	3.56
x2 = 0.9206	4.198

CC(Cl)(Cl)Cl + CC1CCCCC1
303.15 K, 101 kPa
Settings	viscosity [mPa·s]
x1 = 0.1468	0.6328
x1 = 0.2138	0.629
x1 = 0.31	0.6248
x1 = 0.4182	0.6239
x1 = 0.5255	0.6301
x1 = 0.5982	0.6379
x1 = 0.69	0.6518
x1 = 0.759	0.6659
x1 = 0.8273	0.6809
x1 = 0.9075	0.7009

O=C(O)CC(O)(CC(=O)O)C(=O)O + C[N+](C)(C)Cc1ccccc1.[Cl-]
Settings	viscosity [mPa·s]
323.1 K, 101 kPa, x2 = 0.5	88750

CC(Cl)(Cl)Cl + c1ccccc1
303.15 K, 101 kPa
Settings	viscosity [mPa·s]
x1 = 0.1318	0.5946
x1 = 0.2306	0.614
x1 = 0.3381	0.6341
x1 = 0.4104	0.6461
x1 = 0.4894	0.6588
x1 = 0.5844	0.6709
x1 = 0.6716	0.6831
x1 = 0.7484	0.6926
x1 = 0.8648	0.706
x1 = 0.9221	0.7138

O=CO + CC#N
303.15 K, 101 kPa
Settings	viscosity [mPa·s]
x1 = 0.0912	0.386
x1 = 0.1824	0.422
x1 = 0.2772	0.468
x1 = 0.3728	0.523
x1 = 0.4721	0.597
x1 = 0.5735	0.691
x1 = 0.6751	0.801
x1 = 0.7806	0.962
x1 = 0.8891	1.17
